Reference: publication PMC4890880 (ACS infectious diseases, 2016)
Like-named read-outs stand apart in the source and are kept apart here.

Columns and labels:
HepG2-A16-CD81EGFP cells [1] = test: cells; details: Homo sapiens, HepG2, read-out: % inhibition
HepG2-A16-CD81EGFP cells [2] = test: cells; details: Homo sapiens, HepG2, read-out: % inhibition; remark: listed apart in the source
[3] = system: Plasmodium berghei (Pb-Luc) exoerythrocytic-stage parasites; test: microbe, parasite or virus in culture
[4] = read-out: Inhibition% @ 50 uM rep1
[5] = read-out: Inhibition% @ 50 uM rep2

Compound	inhibition at 50 µM (HepG2-A16-CD81EGFP cells [1]) [%]	inhibition at 50 µM (HepG2-A16-CD81EGFP cells [2]) [%]	inhibition at 50 µM [3, 4] [%]	inhibition at 50 µM [3, 5] [%]
Cc1ccc(Nc2nc(NCCO)c3ccccc3n2)cc1C [MMV001038]	94.2	96.1	102	102
CSc1ccccc1C(=O)Nc1nc(-c2ccccn2)cs1 [MMV001246]	82.2	86.4	101	104
CCCCc1ccc(NS(=O)(=O)c2cc3c4c(c2)CCN4C(=O)CC3)cc1 [MMV001255]	67.8	77.1	98	92
O=C(Nc1ccc(Br)cc1)Nc1cccc(Cl)c1 [MMV001318]	66.2	65.5	103	102
CCc1c(C)c(=N)c2ccccc2n1C [MMV006278]	71	77.8	100	101
CN(C)c1ccc(C=Cc2nc(=O)c3ccccc3o2)cc1 [MMV006309]	96.7	98.3	104	105
CCOC(=O)c1ccc2nc(-c3ccccc3)cc(O)c2c1 [MMV006457]	78.2	82.5	102	104
COc1ccc(-c2nc3cc(Cc4ccc5[nH]c(-c6ccc(OC)cc6)nc5c4)ccc3[nH]2)cc1 [MMV007384]	96	99.2	104	105
CCCCCCOC(=O)C1=C(C)NC(=O)NC1c1ccccc1F (stereo not drawn) [MMV007686]	19.1	4.22	69	63
O=c1nc(C=Cc2ccc(Cl)cc2)oc2ccccc12 [MMV007977]	78.9	85.9	104	106
CCOC(=O)c1cnc2c(C)cc(C)cc2c1Nc1ccc(OC)c(OC)c1 [MMV008294]	1.7	-1.86	0.759	0
CCCc1c(CC)c(=N)c2ccccc2n1C [MMV008416]	83.1	84	101	104
CCN(CC)S(=O)(=O)c1ccc(-c2csc(Nc3ccc(C)c(C)c3)n2)cc1 [MMV009108]	72.2	80.9	97	96
Cc1cc(Nc2ccc3ccccc3c2)n2ncnc2n1 [MMV011099]	88.4	86.3	101	102
Cc1cc(Nc2ccc(Cl)cc2)n2nc(C(F)(F)F)nc2n1 [MMV011256]	37.6	37.8	102	104
COc1ccc(C(=O)Nc2nonc2-c2ccc(OC)c(OC)c2)cc1Cl [MMV011567]	-1.34	2.69	58	80
Oc1ccccc1CN1CCN(C(c2ccccc2)c2ccccc2)CC1 [MMV011795]	77.8	51.4	100	102
COc1cccc(-c2nn(C)c3sc(C(=O)NCCN4CCN(c5ccccc5F)CC4)cc23)c1 [MMV019064]	53.8	82.3	103	104
Cc1cccc(Nc2nc(N)c3ccccc3n2)c1 [MMV019110]	91.6	92	99	98
CCN(Cc1ccccc1)C1CCN(Cc2cc(Br)ccc2O)CC1 [MMV019127]	82.2	86	102	104
CCOc1cccc(C(=O)Nc2ccc(-c3nc4ccccc4[nH]3)cc2)c1 [MMV019202]	76.2	88.4	101	100
COc1ccc(-n2ccnc2SCC(=O)Nc2cc(C)ccc2C)c(OC)c1 [MMV019258]	63.1	80.6	102	102
CCC1(C)CC(CCNCc2ccccc2O)(c2ccc(C)cc2)CCO1 (stereo not drawn) [MMV019406]	96.7	98.3	102	102
O=C(Nc1ccc(N2CCCCC2)c(Cl)c1)c1ccc(Br)o1 [MMV019700]	97.5	99	104	106
